The values that follow come from PubChem BioAssay (NCI).

Test systems include SK-MEL-5 melanoma; OVCAR-4 ovarian; TK-10 renal; SF-539 CNS; ACHN renal; HOP-92 NSCLC; UACC-257 melanoma; IGROV1 ovarian; KM12 colon; HT29 colon.
What all share (assay): inhibition of tumour cell growth, NCI panel, 48 h

Structures are written as SMILES. “And” between values parts separate entries of the source, which are not always exact repeats. Identical values can stand only once.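 Grown in 96-well plates, cells were treated for 48 hours with each compound at five concentrations. Insufficient inhibition: endpoint recorded as highest concentration tested. GI50 = concentration required for 50% inhibition of growth. The concentration for full growth arrest is given as TGI.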

Consider `CC(=O)O[C@H]1C(=O)[C@]2(C)[C@@H](OC(=O)OCC(O)CO)C[C@H]3OC[C@@]3(OC(C)=O)[C@H]2[C@H](OC(=O)c2ccccc2)[C@]2(O)C[C@H](OC(=O)[C@H](O)[C@@H](NC(=O)c3ccccc3)c3ccccc3)C(C)=C1C2(C)C` (stereo partly specified), for which the TGI was 19600 nM with SK-MEL-5 melanoma; over 83900 nM in the assay on OVCAR-4 ovarian; 70800 nM in the assay on TK-10 renal; under 10 nM with SF-539 CNS; over 100000 nM with ACHN renal; over 85300 nM in the assay on HOP-92 NSCLC. The TGI in the assay with UACC-257 melanoma is 22200 nM; with IGROV1 ovarian it was over 57700 nM.

Consider `O=C(CCN1CCCC1)Nc1ccc2c(NCCCCc3ccccc3)c3ccccc3nc2c1`, for which the GI50 in the assay with SK-MEL-5 melanoma is 1560 nM; in the assay with OVCAR-4 ovarian, 1120 nM; in the assay with TK-10 renal it was 1400 nM; in the assay with SF-539 CNS, 1440 nM; in the assay with ACHN renal, 1320 nM; with HOP-92 NSCLC, 1060 nM. Further, the figures for the GI50 in the assay with UACC-257 melanoma and in the assay on KM12 colon were 1800 nM and 1330 nM, respectively. Besides, the TGI in the assay with SK-MEL-5 melanoma came to 2910 nM; with OVCAR-4 ovarian, 2520 nM; in the assay with TK-10 renal, 2860 nM; in the assay with SF-539 CNS it was 2840 nM; in the assay with ACHN renal, 2590 nM; in the assay with HOP-92 NSCLC, 2320 nM. Moreover, the TGI came to 3500 nM in the assay with UACC-257 melanoma and 2740 nM in the assay with KM12 colon.

As for `N#Cc1ccc(Nc2nc3nc[nH]c3c(=O)[nH]2)cc1`, the TGI with SK-MEL-5 melanoma, in the assay on OVCAR-4 ovarian, in the assay on HT29 colon, with TK-10 renal, in the assay on SF-539 CNS and with ACHN renal was over 100000 nM throughout. In addition, the TGI with HOP-92 NSCLC, in the assay with UACC-257 melanoma, with KM12 colon and in the assay on IGROV1 ovarian was over 100000 nM each time.

Take `CC(=O)OC1CC2(O)C(CCC3(C)C(c4ccc(=O)oc4)CCC32O)C2(C)CCC(O)C=C12` (stereo unspecified): the GI50 is 37.5 nM in the assay on SK-MEL-5 melanoma; 37.5 nM in the assay with OVCAR-4 ovarian; 59.2 nM with HT29 colon; 37.5 nM in the assay on SF-539 CNS; 37.5 nM in the assay with HOP-92 NSCLC; 37.5 nM in the assay on UACC-257 melanoma. In addition, the GI50 is 33 nM and 81.4 nM in the assay on KM12 colon; 37.5 nM with IGROV1 ovarian. The TGI is 46 nM and 40 nM in the assay on SK-MEL-5 melanoma; 68.6 nM and 49.5 nM in the assay with OVCAR-4 ovarian; 38.3 nM and 41.4 nM in the assay with SF-539 CNS; 374 nM and 86.9 nM in the assay with HOP-92 NSCLC; 105 nM and 823 nM in the assay with UACC-257 melanoma; 213 nM and 676 nM in the assay on KM12 colon. Besides, the TGI in the assay on IGROV1 ovarian is 351 nM and 242 nM.

For `CC(C)(C)CC(C)(C)Cc1ccc(OCCOCC[N+](C)(C)Cc2ccccc2)cc1`, the GI50 with SK-MEL-5 melanoma was 517 nM; with OVCAR-4 ovarian, 681 nM; in the assay on HT29 colon it was 1500 nM; with TK-10 renal it was 2830 nM; with SF-539 CNS it was 1700 nM; with ACHN renal, 11800 nM. Also, the GI50 is 1230 nM with HOP-92 NSCLC, 1510 nM in the assay with UACC-257 melanoma and 1330 nM in the assay on IGROV1 ovarian. Also, the TGI in the assay with SK-MEL-5 melanoma amounted to 1790 nM; with OVCAR-4 ovarian, 3940 nM; with HT29 colon, 3100 nM; with TK-10 renal, 12700 nM; in the assay on SF-539 CNS, 3210 nM; with ACHN renal, 27000 nM. The TGI was 2560 nM in the assay on HOP-92 NSCLC, 3180 nM in the assay with UACC-257 melanoma and 2860 nM in the assay with IGROV1 ovarian.

For the compound `COc1cc2c(cc1-c1c(C)noc1C)ncc1nc(C3CCCCC3)n(C3CCC(OC(F)F)CC3)c12` (stereo unspecified), the GI50 was 2170 nM with OVCAR-4 ovarian, 1530 nM in the assay on HOP-92 NSCLC, 3430 nM with KM12 colon and 3940 nM in the assay with IGROV1 ovarian. The TGI in the assay on OVCAR-4 ovarian is over 100000 nM; in the assay on HOP-92 NSCLC, 4620 nM; in the assay on KM12 colon, over 100000 nM; in the assay with IGROV1 ovarian, over 100000 nM.

`COc1cc(-c2ccc(-c3ccc(C(=N)N)s3)s2)cc(OC)c1OC`: the GI50 is 1520 nM in the assay with SK-MEL-5 melanoma; 1820 nM with OVCAR-4 ovarian; 2700 nM in the assay with TK-10 renal; 1580 nM in the assay with SF-539 CNS; 1780 nM in the assay with ACHN renal; 2220 nM with UACC-257 melanoma. The TGI in the assay on SK-MEL-5 melanoma was 2880 nM; in the assay on OVCAR-4 ovarian, 3950 nM; in the assay on TK-10 renal, 7340 nM; with SF-539 CNS, 3020 nM; with ACHN renal, 3170 nM; with UACC-257 melanoma, 4020 nM.

For the compound `COc1cccc2c1C(=O)c1c(O)c3c(c(O)c1C2=O)C[C@@](O)(C(C)=O)C[C@@H]3OC1CC(N)C(O)C(C)O1` (stereo partly specified), the GI50 in the assay with SK-MEL-5 melanoma is under 18 nM; in the assay on OVCAR-4 ovarian, 64.3 nM; in the assay on HT29 colon, 24.6 nM; in the assay with TK-10 renal, 144 nM; in the assay on ACHN renal it was under 11 nM; in the assay with HOP-92 NSCLC, under 10.4 nM. Also, the values for the GI50 in the assay on UACC-257 melanoma, with KM12 colon and in the assay with IGROV1 ovarian were 68.5 nM, 44.3 nM and under 37.4 nM, respectively.

On to `Cc1c2cc[n+](C)cc2c(COC2OC(CO)C(O)C2O)c2c3ccccc3n(C)c12` (stereo unspecified), for which the TGI in the assay with SK-MEL-5 melanoma, in the assay on OVCAR-4 ovarian, in the assay with HT29 colon, in the assay on SF-539 CNS, with HOP-92 NSCLC and with UACC-257 melanoma was over 100000 nM in each case. Besides, the TGI in the assay on KM12 colon and with IGROV1 ovarian was over 100000 nM in each case.

For the compound `Cc1c2cc[n+](C)cc2c(C)c2c1[nH]c1ccc(O)cc12`, the TGI with SK-MEL-5 melanoma was 58800 nM; with OVCAR-4 ovarian, over 100000 nM; with HT29 colon, over 81100 nM; in the assay on TK-10 renal, over 100000 nM; with SF-539 CNS it was 75200 nM; in the assay with HOP-92 NSCLC it was 52400 nM. Besides, the TGI was over 90600 nM in the assay with UACC-257 melanoma, over 86900 nM in the assay on KM12 colon and over 100000 nM with IGROV1 ovarian.

Turning to `CCP(=O)(CC)C(Cl)(Cl)C(=O)NC`, the TGI with SK-MEL-5 melanoma, in the assay on OVCAR-4 ovarian, in the assay with HT29 colon, in the assay on TK-10 renal, in the assay with ACHN renal and in the assay on HOP-92 NSCLC was over 100000 nM each time. Moreover, the TGI in the assay on UACC-257 melanoma and in the assay with IGROV1 ovarian was over 100000 nM each time.
